Entries after “also recorded” stand apart in the source; their conditions may differ.
Legend:
hepoxilin A3 secretion = experiment: Hepoxilin A3 release from P. aeruginosa infected A549 cell monolayers; format: cell-based, human; conditions: A549 treated with inhibitor prior to P. aeruginosa infection; listed as 12-LO inhibitor
Text: It was further determined whether similar hepoxilin A3 recruitment of PMN by apically attached pathogens might occur at other mucosal surfaces. Pseudomonas aeruginosa is the most prominent bacterial spp. present during chronic infection in cystic fibrosis and chronic obstructive pulmonary disease patients and is accompanied by severe inflammation, including the emigration of PMN to the airway lumen (Pizurki et al., 2000; Jahn et al., 2000; Weiss, S. 1989). As a model for the airway epithelium the A549 cell line was used. This cell line is capable of forming a polarized barrier, and is widely employed as a model for the airway epithelial surface (Smart and Casale, 1994). […] Finally, the secretion of hepoxlin A3 in vitro was quantified using this A549 model system. For these experiments, A549 lung epithelial cells (ATTC) were grown in F12K media (Invitrogen) with 10% FBS, and maintained in culture similar to the T84 cell line. The wild type P. aeruginosa (PAO1) was used for infection of A549 after overnight aerobic growth (Luria broth) at 37° C.
The apical compartment of A549 cell monolayers treated for 90 minutes with P. aeruginosa had approximately 210 pmoles in the apical compartment and nearly 130 pmoles in the basolateral compartment. […]

[1] = tested on: intestinal inflammation (rectal prolapse); experiment: Intestinal inflammation in SCID mice induced by CD45RBHI T cell transfer; format: in vivo
Procedure: The therapeutic benefits of baicalein on subsiding intestinal inflammation, which was induced in SCID mice by i.v. injection of CD4+ CD45RB HI T cells, was examined. For these experiments, spleens were collected from 6-12 week old donor mice (BALB/c) and splenocytes were isolated by mechanical homogenization of whole spleens. The CD4+ T cells were selected by positive selection. In brief, a cell suspension of pooled splenocytes from 4-5 donor mice was incubated with anti-CD4 (L3T4) antibody coated magnetic beads (DYNABEADS: Catalog # 114.05, Dynal, Lake Success, N.Y.) for 20-30 minutes at 4° C. and separated by magnetic cell sorting with a Dynal Magnetic Particle Concentrator (MPC). Cells were removed from the cell-bead complex with Dynal DETACHaBEAD, and isolated from beads using a Dynal MPC. The resulting CD4+ enriched population was >90% pure. The cell suspension was then incubated with Fc block (anti-CD32, PharMingen, 01241A) and labeled with anti-CD4-FITC (PharMingen, 9004D) and anti-CD45RB-PE (PharMingen, 01145A), for 30 minutes at 4° C. washed, and sorted using a FACSTAR (Becton Dickinson, San Jose, Calif.) cell sorter. Double positive cells (CD4+/CD45Rb+) were collected, selecting the cells that expressed high levels of CD45Rb (brightest 45%). The collected cell population was >90% pure and viable. Cells were then washed in cold […] buffered saline (PBS Sigma D8662) and resuspended in PBS. Balb/c SCID mice, aged 6-12 weeks, were injected intravenously with CD45RBHI Tcells in the tail vein.
Ten weeks post CD45RBHI T cell transfer, roughly 30% of SCID mice developed intestinal inflammation, characterized by mucin depletion, goblet cell loss, epithelial hyperplasia and finally rectal prolapse (FIG. 8). These mice were divided equally among treatment groups The first treatment group received buffer control alone (sterile Hanks Balanced Salts Solution (“HBSS”)) and the second and the third treatment groups received low (2 μM) and high (200 μM) doses of baicalein i.v., respectively, every other day along with a vehicle control. […]

[2] = tested on: S. typhimurium-infected human intestinal xenografts; experiment: Histopathology of human intestinal xenografts infected with S. typhimurium; format: in vivo; conditions: 1 μM in 100 μl intralumenally 2 hours prior to infection; xenografts in SCID mice; 15 hours after infection
Procedure: (§1) Further, the effect of baicalein on S. typhimurium pathology in human intestinal xenografts was determined (Savidge et al., 1995) (FIG. 7). The human fetal intestinal xenograft model used in the present study has been previously described in detail (Savidge et al., 1995). Briefly, human fetal small intestine (n=3, gestational age 10-14weeks) was transplanted subcutaneously into C.B-17 severe-combined immunodeficient (SCID) mice. Xenografts were allowed to develop for a period between 10-20 weeks before use at which time the epithelium and underlying mucosa is fully differentiated (Savidge et al., 1995). Xenografts were infected with approximately 5×10^7 wild type S. typhimurium SL1344 in sterile HBSS(+) buffer in a 100 μl volume injected intralumenally by subcutaneous injection. Xenografts receiving the drug treatment were injected with 1 μM baicalein in a 100 μl volume 2 hours prior to infection with S. typhimurium (in the continued presence of 1 μM baicalein). Xenograft tissue was removed 15 hours after infection, extensively washed, and snap frozen in OCT compound.
A severe vascular disturbance was also noted. These outcomes are all consistent with the clinical manifestations observed from S. typhimurium infection in humans.

IL-8 secretion = IL-8 secretion by S. typhimurium infected T84 cell monolayers; format: cell-based, human; conditions: S. typhimurium infected T84, baicalein 1 μM
[3] = tested on: PEEC/hepoxilin A3 secretion; experiment: Apical PEEC/hepoxilin A3 release from S. typhimurium infected T84 cell monolayers; format: cell-based, human; conditions: S. typhimurium infected T84 with 12-LO inhibitor
Text: T84 cell monolayers were infected with S. typhimurium in the absence or presence of the 12-LO enzyme inhibitor and apical supernatants were examined for PEEC bioactivity. […] Moreover, since it had been previously shown that S. typhimurium via its effector SipA initiates an ARF6-dependent lipid-signaling cascade that directs the activation of PKC and release of PEEC, it was further examined if blocking PKC activity (which would occur upstream of 12-LO) also corresponds with a reduction in hepoxilin A3 bioactivity and release, as one would predict.

IL-8 production = experiment: IL-8 produced in S. typhimurium-infected intestinal xenografts; format: in vivo, human; conditions: S. typhimurium-infected xenografts in the presence of baicalein
Procedure: as §1, with “Xenografts receiving the drug treatment were injected with 1 μM baicalein in a 100 μl volume 2 hours prior to infection with S. typhimurium (in the continued presence of 1 μM baicalein). Xenograft tissue was removed 15 hours after infection, extensively washed, and snap frozen in OCT compound.” left out
It was further confirmed that treatment of the intestinal xenografts with baicalein inhibited the 12-LO pathway by measuring the amount of 12-S-HETE, a major 12-LO metabolite, released into the lumenal fluid. […] Finally, it was determined that there was no statistical difference in the amount IL-8 produced in the S. typhimurium-infected intestinal xenografts in the absence compared to the presence of baicalein treatment (200±53 pg/mg compared to 225±30 pg/mg, respectively, verses 52±11 pg/mg for uninfected control). […]

Question: For O=c1cc(-c2ccccc2)oc2cc(O)c(O)c(O)c12 [baicalein], which “hepoxilin A3 levels released” value (hepoxilin A3 secretion) is on record?
Answer: no detectable levels of hepoxilin A3

Question: And the rectal prolapse ([1]; high dose 200 μM i.v. every other day, 2.5 weeks)?
Answer: complete recovery of rectal prolapse

Question: What about the “health status and rectal prolapse” value ([1]; low dose 2 μM i.v. every other day, 2.5 weeks) of the same molecule?
Answer: no improvement of their health status and rectal prolapse

Question: And the “illness (rectal prolapse, diarrhea, weight loss)” value ([1]; therapeutic regimen, after 2 weeks)?
Answer: resolved the illness

Question: And the “histopathology / severity of intestinal inflammation” value [2]?
Answer: only minimal alterations detectable; also recorded: significantly reduced; also recorded: significantly less severe

Question: And the IL-8 secretion (IL-8 secretion)?
Answer: 577 ± 35 pg/mL

Question: What about the “PEEC secretion (bioactivity of apical supernatants)” value [3] of the same molecule?
Answer: significant decrease in PEEC secretion; also recorded: dramatically reduced

Question: What about the IL-8 produced (IL-8 production) of the same molecule?
Answer: 225 ± 30 pg/mg

Reference: patent US20040265323A1, “Compositions comprising pathogen elicited epithelial chemoattractant (eicosanoid hepoxilin A3), inhibitors thereof and methods of use thereof” (priority 2003, published 2004)
